# Where two headings read alike, the source gives them in different places.
# Experiment: Plasma pharmacokinetics of CX-5461 (HPLC-MS/MS, non-compartmental)
# Assay type: in vivo, human
# Settings: plasma; for concentration at 48 h / concentration at 72 h / concentration at 0.5 h / concentration at 1 h / concentration at 4 h / concentration at 6 h / concentration at 0 h / concentration at 2 h / concentration at 24 h: individual patients, read-out: Day 1 CX-5461 plasma concentration
# Experimental: PK was assessed on all patients in the escalation phase. Venous blood samples were collected on treatment days 1, 8, and 15 (where applicable), and plasma CX-5461 was analyzed with HPLC-MS/MS (schedule details in Supplementary Table 3). PK parameters were calculated with non-compartmental methods. […] The protocol was amended to allow submission of a ctDNA sample and in a further amendment, a mandatory skin biopsy (pre-treatment and cycle 1 day 15) to study phototoxic effects. Fresh tumor biopsies were optional.
# Supplementary Table 3. Schedule for collection of CX5461 pharmacokinetics
# During infusion at 30 minutes
# Immediately post infusion then:
# C1D1 30 minutes post infusion
# C1D2 24 hours post infusion
# C1D3 48 hours post infusion
# C1D4 72 hours post infusion
# Immediately post infusion then
# C1D15 30 minutes post infusion
# C1D16 24 hours post infusion
# In addition to the specific time points listed above, additional samples were to be collected from […]
# [1] = human, intravenous, 50 mg/m2, 50 mg/m2
# [2] = human, intravenous, 100 mg/m2, 100 mg/m2
# [3] = human, intravenous, 150 mg/m2, 150 mg/m2
# [4] = human, intravenous, 200 mg/m2, 200 mg/m2
# [5] = human, intravenous, 250 mg/m2, 250 mg/m2
# [6] = human, intravenous, 325 mg/m2, 325 mg/m2
# [7] = human, intravenous, 325 mg/m2, B: 325 mg/m2
# [8] = human, intravenous, 475 mg/m2, 475 mg/m2
# [9] = human, intravenous, 475 mg/m2, B: 475 mg/m2
# [10] = human, intravenous, 650 mg/m2, 650 mg/m2
smiles,measurement,setting,value
Cc1cnc(CNC(=O)c2c(=O)c3ccc(N4CCCN(C)CC4)nc3n3c2sc2ccccc23)cn1 [CX-5461],concentration at 48 h,[1],24.8 ng/mL
same,concentration at 72 h,[1],13.3 ng/mL
same,AUC,"human, intravenous, 50 mg/m2, Dose level 50 (mg/m2), one patient per datapoint, read-out: Day 1 AUC",3240 ng·h/mL
same,concentration at 0.5 h,[2],141 ng/mL
same,concentration at 1 h,[2],115 ng/mL
same,concentration at 4 h,[2],103 ng/mL
same,concentration at 6 h,[2],83.2 ng/mL
same,concentration at 48 h,[2],44.7 ng/mL
same,concentration at 72 h,[2],20 ng/mL
same,AUC,"human, intravenous, 100 mg/m2, Dose level 100 (mg/m2), one patient per datapoint, read-out: Day 1 AUC",5240 ng·h/mL
same,Cmax,"human, intravenous, 100 mg/m2, Dose level 100 (mg/m2), one patient per datapoint, read-out: Day 8 or 15 Cmax",1140 ng/mL
same,concentration at 0 h,[3],465 ng/mL
same,concentration at 0.5 h,[3],320 ng/mL
same,concentration at 2 h,[3],206 ng/mL
same,concentration at 4 h,[3],200 ng/mL
same,concentration at 6 h,[3],179 ng/mL
same,Cmax,"human, intravenous, 150 mg/m2, Dose level 150 (mg/m2), one patient per datapoint, read-out: Day 1 Cmax",465 ng/mL
same,AUC,"human, intravenous, 150 mg/m2, Dose level 150 (mg/m2), one patient per datapoint, read-out: Day 8 or 15 AUC",19600 ng·h/mL
same,concentration at 24 h,[4],72.8 ng/mL
same,concentration at 72 h,[4],31.4 ng/mL
same,concentration at 0 h,[5],867 ng/mL
same,concentration at 0.5 h,[5],420 ng/mL
same,concentration at 1 h,[5],423 ng/mL
same,concentration at 2 h,[5],369 ng/mL
same,concentration at 4 h,[5],233 ng/mL
same,concentration at 24 h,[5],197 ng/mL
same,concentration at 48 h,[5],106 ng/mL
same,concentration at 72 h,[5],85.4 ng/mL
same,AUC,"human, intravenous, 250 mg/m2, Dose level 250 (mg/m2), one patient per datapoint, read-out: Day 1 AUC",12400 ng·h/mL
same,AUC,"human, intravenous, 250 mg/m2, Dose level 250 (mg/m2), one patient per datapoint, read-out: Day 8 or 15 AUC",19000 ng·h/mL
same,concentration at 0 h,[6],1310 ng/mL
same,concentration at 0.5 h,[6],446 ng/mL
same,concentration at 1 h,[6],400 ng/mL
same,concentration at 2 h,[6],395 ng/mL
same,concentration at 4 h,[6],244 ng/mL
same,concentration at 6 h,[6],291 ng/mL
same,concentration at 24 h,[6],232 ng/mL
same,concentration at 48 h,[6],138 ng/mL
same,concentration at 72 h,[6],110 ng/mL
same,concentration at 1 h,[7],297 ng/mL
same,concentration at 2 h,[7],308 ng/mL
same,concentration at 4 h,[7],252 ng/mL
same,concentration at 6 h,[7],271 ng/mL
same,concentration at 48 h,[7],203 ng/mL
same,concentration at 72 h,[7],107 ng/mL
same,AUC,"human, intravenous, 325 mg/m2, Dose level 325 (mg/m2), one patient per datapoint, read-out: Day 1 AUC",15000 ng·h/mL
same,Cmax,"human, intravenous, 325 mg/m2, Dose level 325 (mg/m2), one patient per datapoint, read-out: Day 1 Cmax",1310 ng/mL
same,AUC,"human, intravenous, 325 mg/m2, Dose level 325 (mg/m2), one patient per datapoint, read-out: Day 8 or 15 AUC",24600 ng·h/mL
same,Cmax,"human, intravenous, 325 mg/m2, Dose level 325 (mg/m2), one patient per datapoint, read-out: Day 8 or 15 Cmax",1440 ng/mL
same,AUC,"human, intravenous, 325 mg/m2, Dose level B: 325 (mg/m2), one patient per datapoint, read-out: Day 1 AUC",25200 ng·h/mL
same,Cmax,"human, intravenous, 325 mg/m2, Dose level B: 325 (mg/m2), one patient per datapoint, read-out: Day 1 Cmax",822 ng/mL
same,concentration at 0 h,[8],1540 ng/mL
same,concentration at 0.5 h,[8],475 ng/mL
same,concentration at 1 h,[8],480 ng/mL
same,concentration at 2 h,[8],445 ng/mL
same,concentration at 4 h,[8],293 ng/mL
same,concentration at 6 h,[8],274 ng/mL
same,concentration at 24 h,[8],242 ng/mL
same,concentration at 48 h,[8],140 ng/mL
same,concentration at 72 h,[8],104 ng/mL
same,concentration at 0.5 h,[9],890 ng/mL
same,concentration at 1 h,[9],698 ng/mL
same,concentration at 4 h,[9],424 ng/mL
same,concentration at 48 h,[9],336 ng/mL
same,concentration at 72 h,[9],219 ng/mL
same,AUC,"human, intravenous, 475 mg/m2, Dose level 475 (mg/m2), one patient per datapoint, read-out: Day 1 AUC",15800 ng·h/mL
same,Cmax,"human, intravenous, 475 mg/m2, Dose level 475 (mg/m2), one patient per datapoint, read-out: Day 1 Cmax",1850 ng/mL
same,Cmax,"human, intravenous, 475 mg/m2, Dose level 475 (mg/m2), one patient per datapoint, read-out: Day 8 or 15 Cmax",1680 ng/mL
same,Cmax,"human, intravenous, 475 mg/m2, RP2D 475 mg/m^2 d1,8,15, read-out: average day 1 Cmax",1740 ± 801 ng/mL
same,Cmax,"human, intravenous, 475 mg/m2, RP2D 475 mg/m^2 d1,8,15, read-out: day 15 Cmax",2870 ± 2310 ng/mL
same,half-life,"human, intravenous, 475 mg/m2, RP2D 475 mg/m^2 d1,8,15, read-out: elimination half-life (t1/2), day 1 (converted)",61.5 ± 15.5 h
same,half-life,"human, intravenous, 475 mg/m2, RP2D 475 mg/m^2 d1,8,15, read-out: elimination half-life (t1/2), day 15 (converted)",59 ± 11.2 h
same,concentration at 14 days,"human, intravenous, 475 mg/m^2, 14 days after the prior dose, read-out: mean trough plasma level prior to cycle 2 day 1",49.1 ± 34.5 ng/mL
same,concentration at 0 h,[10],953 ng/mL
same,concentration at 0.5 h,[10],1040 ng/mL
same,concentration at 2 h,[10],712 ng/mL
same,concentration at 4 h,[10],495 ng/mL
same,concentration at 48 h,[10],222 ng/mL
same,AUC,"human, intravenous, 650 mg/m2, Dose level 650 (mg/m2), one patient per datapoint, read-out: Day 1 AUC",26800 ng·h/mL
same,elimination,,eliminated slowly
